Measurements: patent publication US20210379035A1, “Methods Of Treating Fabry Patients Having Renal Impairment” (Amicus Therapeutics, Inc., priority 2017, published 2021)

Tested on: Fabry patients
Assay: Long-term analysis of 12 patients that completed multiple studies: eGFR
Type: in vivo, human
Details: 11 patients who received migalastat HCl 150 mg QOD for ≥17 months (mean exposure, 4-5 years)
From the text: In addition to the studies described above, other patients also received migalastat therapy in other studies such as dose-finding studies and/or long-term extension studies. […] 12 patients that completed multiple studies were further analyzed. Linear regression was used to calculate the annualized rate of change in […] from baseline.

Q: How did the “annualized mean change in eGFRCKD-EPI” value turn out when `Cl.OC[C@H]1NC[C@H](O)[C@@H](O)[C@H]1O` [migalastat HCl, migalastat hydrochloride] was run?
A: 0.24 mL/min/1.72 m^2
